These results are taken from patent US6492559B1, “Alkylated aminoether surfactants” (Air Products and Chemicals, Inc., priority 1998, dated 2002).

Holding throughout (format): physicochemical
Series [1] can be described thus: Dynamic surface tension of aqueous solutions, maximum bubble pressure method. The text has this:
where n is 2-6, preferably 2-4; m is 0-4, preferably 0-2; and p and q are 2-6, preferably 2 or 3; and R and R′ independently are an alkyl group comprising 5 to 18 carbons, preferably 5 to 8 carbons which is branched or in which the point of attachment to nitrogen is on a nonterminal carbon, for the reduction of equilibrium and dynamic surface tension in water-based compositions containing an organic compound, particularly coating, ink, and agricultural compositions containing organic compounds such as polymeric resins, herbicides, pesticides or plant growth modifying agents. […] The maximum-bubble-pressure method of measuring surface tension is described in Langmuir 1986, 2, 428-432, which is incorporated by reference.
Dynamic surface tension data were obtained for aqueous solutions of the reductive alkylation product of the dialkylated aminoethylether of Example 1 using the maximum bubble pressure method at bubble rates from 0.1 bubbles/second (b/s) to 20 b/s. […] In practical terms, high bubble rates correspond to high printing speeds in lithographic printing, high spray or roller velocities in coating applications, and rapid application rates for agricultural products.

A further series in a line: Solubility in water.
The nature of series [2]: Foam test based upon ASTM D 1173-53. To be noted: 0.1 wt % solution. The procedure: The foaming properties of 0.1 wt % solutions of the reductive alkylation products of the products of this invention were examined using a procedure based upon ASTM D 1173-53. In this test, a 0.1 wt % solution of the surfactant is added from an elevated foam pipette to a foam receiver containing the same solution. The foam height is measured at the completion of the addition (“Initial Foam Height”) and the time required for the foam to dissipate is recorded (“Time to 0 Foam”). This test provides a comparison between the foaming characteristics of various surfactant solutions. In general, in coatings, inks, and agricultural formulations, foam is undesirable because is complicates handling and can lead to coating and print defects, and to inefficient application of agricultural materials.

On to `CC(C)CC(C)NCCOCCNC(C)CC(C)C` (stereo not shown) [AEE/MIBK2], for which the “Dynamic Surface Tension” value in series [1] (0.03 wt % in water, 0.1 b/s) was 37.9 dyne/cm; in series [1] (0.03 wt % in water, 1 b/s), 39.0 dyne/cm; in series [1] (0.03 wt % in water, 6 b/s), 42.8 dyne/cm; in series [1] (0.03 wt % in water, 15 b/s), 47.9 dyne/cm; in series [1] (0.03 wt % in water, 20 b/s), 48.2 dyne/cm; in series [1] (0.05 wt % in water, 0.1 b/s) it was 34.7 dyne/cm. Besides, the “Dynamic Surface Tension” value in series [1] (0.05 wt % in water, 1 b/s) is listed as 35.4 dyne/cm; in series [1] (0.05 wt % in water, 6 b/s) it was 37.6 dyne/cm; in series [1] (0.05 wt % in water, 15 b/s) it was 40.9 dyne/cm; in series [1] (0.05 wt % in water, 20 b/s) it was 41.9 dyne/cm; in series [1] (0.07 wt % in water, 0.1 b/s), 32.4 dyne/cm; in series [1] (0.07 wt % in water, 1 b/s), 33.0 dyne/cm. Further, the “Dynamic Surface Tension” value in series [1] (0.07 wt % in water, 6 b/s) is 34.5 dyne/cm; in series [1] (0.07 wt % in water, 15 b/s), 36.8 dyne/cm; in series [1] (0.07 wt % in water, 20 b/s) it was 37.7 dyne/cm; in series [1] (0.1 wt % in water, 0.1 b/s), 30.3 dyne/cm; in series [1] (0.1 wt % in water, 1 b/s), 30.8 dyne/cm; in series [1] (0.1 wt % in water, 6 b/s), 31.8 dyne/cm. The “Dynamic Surface Tension” value in series [1] (0.1 wt % in water, 15 b/s) was 33.4 dyne/cm; in series [1] (0.1 wt % in water, 20 b/s), 34.1 dyne/cm; in series [1] (0.15 wt % in water, 0.1 b/s), 27.6 dyne/cm; in series [1] (0.15 wt % in water, 1 b/s), 27.9 dyne/cm; in series [1] (0.15 wt % in water, 6 b/s), 28.7 dyne/cm; in series [1] (0.15 wt % in water, 15 b/s) it was 30.1 dyne/cm. In addition, the “Dynamic Surface Tension” value is reported as 30.6 dyne/cm in series [1] (0.15 wt % in water, 20 b/s); 26.7 dyne/cm in series [1] (0.2 wt % in water, 0.1 b/s); 26.9 dyne/cm in series [1] (0.2 wt % in water, 1 b/s); 27.4 dyne/cm in series [1] (0.2 wt % in water, 6 b/s); 28.8 dyne/cm in series [1] (0.2 wt % in water, 15 b/s); 29.3 dyne/cm in series [1] (0.2 wt % in water, 20 b/s). Besides, the solubility limit result in the series “Solubility in water” was “about 0.2 wt %”.
In the case of `CC(C)CC(C)NCCCOCCCNC(C)CC(C)C` (stereo not shown) [APE/MIBK2], the “Dynamic Surface Tension” value in series [1] (0.1 wt % in water, 0.1 b/s) turned out to be 30.8 dyne/cm; in series [1] (0.1 wt % in water, 1 b/s) it was 31.3 dyne/cm; in series [1] (0.1 wt % in water, 6 b/s), 32.6 dyne/cm; in series [1] (0.1 wt % in water, 15 b/s), 34.4 dyne/cm; in series [1] (0.1 wt % in water, 20 b/s), 34.9 dyne/cm; in series [1] (0.15 wt % in water, 0.1 b/s), 29.3 dyne/cm. In addition, the “Dynamic Surface Tension” value was 29.9 dyne/cm in series [1] (0.15 wt % in water, 1 b/s); 30.1 dyne/cm in series [1] (0.15 wt % in water, 6 b/s); 32.9 dyne/cm in series [1] (0.15 wt % in water, 15 b/s); 33.3 dyne/cm in series [1] (0.15 wt % in water, 20 b/s). In series [2], the “Initial Foam Height” value was 1.0 cm. Further, the “Time to 0 Foam” value in series [2] was 2 s.
Turning to `CC(C)CC(C)NCCCOCCOCCCNC(C)CC(C)C` (stereo not shown) [BAPE/MIBK2], the “Dynamic Surface Tension” value in series [1] (0.1 wt % in water, 0.1 b/s) was found to be 35.5 dyne/cm; in series [1] (0.1 wt % in water, 1 b/s) it was 36.0 dyne/cm; in series [1] (0.1 wt % in water, 6 b/s) it was 37.2 dyne/cm; in series [1] (0.1 wt % in water, 15 b/s) it was 38.7 dyne/cm; in series [1] (0.1 wt % in water, 20 b/s), 39.2 dyne/cm; in series [1] (0.2 wt % in water, 0.1 b/s), 31.6 dyne/cm. Further, the “Dynamic Surface Tension” value in series [1] (0.2 wt % in water, 1 b/s) is 32.0 dyne/cm; in series [1] (0.2 wt % in water, 6 b/s), 32.9 dyne/cm; in series [1] (0.2 wt % in water, 15 b/s), 33.8 dyne/cm; in series [1] (0.2 wt % in water, 20 b/s), 34.1 dyne/cm; in series [1] (0.5 wt % in water, 0.1 b/s) it was 29.7 dyne/cm; in series [1] (0.5 wt % in water, 1 b/s) it was 29.8 dyne/cm. Besides, the “Dynamic Surface Tension” value in series [1] (0.5 wt % in water, 6 b/s) came to 30.1 dyne/cm; in series [1] (0.5 wt % in water, 15 b/s), 30.8 dyne/cm; in series [1] (0.5 wt % in water, 20 b/s) it was 31.0 dyne/cm. The “solubility (in words)” value in the series “Solubility in water” is “relatively high solubility”. The “Initial Foam Height” value in series [2] is on record as 2.6 cm. In series [2], the “Time to 0 Foam” value was 8 s.
Regarding `CC(C)CC(C)NCCCOCCOCCOCCCNC(C)CC(C)C` (stereo not shown) [BAPEE/MIBK2], the “Dynamic Surface Tension” value in series [1] (0.1 wt % in water, 0.1 b/s) was 39.2 dyne/cm; in series [1] (0.1 wt % in water, 1 b/s) it was 39.7 dyne/cm; in series [1] (0.1 wt % in water, 6 b/s) it was 40.8 dyne/cm; in series [1] (0.1 wt % in water, 15 b/s), 42.0 dyne/cm; in series [1] (0.1 wt % in water, 20 b/s) it was 42.2 dyne/cm; in series [1] (0.5 wt % in water, 0.1 b/s) it was 30.6 dyne/cm. Moreover, the “Dynamic Surface Tension” value in series [1] (0.5 wt % in water, 1 b/s) was determined as 30.7 dyne/cm; in series [1] (0.5 wt % in water, 6 b/s), 31.0 dyne/cm; in series [1] (0.5 wt % in water, 15 b/s), 31.8 dyne/cm; in series [1] (0.5 wt % in water, 20 b/s) it was 32.2 dyne/cm. Further, the “Initial Foam Height” value in series [2] was 3.1 cm. Besides, the “Time to 0 Foam” value in series [2] came to 5 s.
